# Reference: patent US20260125400A1, “TYK2 DEGRADERS AND USES THEREOF” (Kymera Therapeutics, Inc., priority 2023, published 2026)
# Read-outs that look alike come from different tables or passages of the source.
# Biological target: T1, TYK2 (Homo sapiens, UniProt P29597)
# T1 construct: Degradation of TYK2 in cells was quantitatively measured using Meso Scale Discovery (MSD) technology; endogenous in cells; host or cells: OCI-LY10
# Test: TYK2 MSD degradation in OCI-LY10 cells
# Assay type: cell-based
# Conditions: 4 to 24 hours incubation; for DC50: read-out: TYK2 MSD OCI-LY10 Rel-DC50
# Method in brief: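 Cellular TYK2 levels were measured by Meso Scale Discovery sandwich detection in RIPA lysates of OCI-LY10 cells exposed 4 to 24 hours at 37° C to nine 1:3 compound doses starting at 1 to 10 μM final; dose-response fitted by four-parameter regression.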
# [1] = TYK2 degradation in OCI-LY10 cells
# T1 sequence (P29597 whole entry): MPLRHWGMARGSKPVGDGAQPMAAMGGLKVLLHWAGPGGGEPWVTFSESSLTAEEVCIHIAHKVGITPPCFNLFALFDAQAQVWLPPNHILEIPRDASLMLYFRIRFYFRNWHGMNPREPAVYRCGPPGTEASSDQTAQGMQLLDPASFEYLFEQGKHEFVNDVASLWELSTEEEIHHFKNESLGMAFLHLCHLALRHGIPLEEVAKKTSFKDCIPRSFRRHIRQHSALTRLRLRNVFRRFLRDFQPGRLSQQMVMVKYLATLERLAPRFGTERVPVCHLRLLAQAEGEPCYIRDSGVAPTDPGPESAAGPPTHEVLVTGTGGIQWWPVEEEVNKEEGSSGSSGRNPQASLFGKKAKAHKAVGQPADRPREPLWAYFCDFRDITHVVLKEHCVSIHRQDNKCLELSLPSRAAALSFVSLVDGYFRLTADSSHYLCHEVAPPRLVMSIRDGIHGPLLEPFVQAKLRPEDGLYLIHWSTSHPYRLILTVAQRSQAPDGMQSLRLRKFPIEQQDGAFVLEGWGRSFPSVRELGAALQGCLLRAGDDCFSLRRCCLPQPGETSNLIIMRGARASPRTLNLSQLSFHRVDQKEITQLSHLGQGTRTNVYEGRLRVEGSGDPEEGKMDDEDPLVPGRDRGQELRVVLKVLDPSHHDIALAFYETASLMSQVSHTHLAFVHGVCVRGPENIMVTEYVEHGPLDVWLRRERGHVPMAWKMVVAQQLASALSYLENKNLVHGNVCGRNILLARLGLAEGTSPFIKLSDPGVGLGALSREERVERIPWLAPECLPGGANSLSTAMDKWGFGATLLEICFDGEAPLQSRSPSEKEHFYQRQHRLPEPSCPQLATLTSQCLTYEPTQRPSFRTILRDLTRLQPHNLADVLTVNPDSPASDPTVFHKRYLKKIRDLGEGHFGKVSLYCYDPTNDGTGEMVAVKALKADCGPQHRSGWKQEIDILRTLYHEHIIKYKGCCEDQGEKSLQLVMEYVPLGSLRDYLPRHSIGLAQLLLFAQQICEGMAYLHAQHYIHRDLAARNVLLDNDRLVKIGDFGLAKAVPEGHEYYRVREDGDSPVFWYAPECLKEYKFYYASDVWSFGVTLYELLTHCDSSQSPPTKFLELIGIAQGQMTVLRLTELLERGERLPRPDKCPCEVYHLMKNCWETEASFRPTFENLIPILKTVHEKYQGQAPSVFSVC
Structure (SMILES),TYK2 MSD OCI-LY10 Dmax % [1],DC50 [1],TYK2 MSD OCI-LY10 Dmax % (OCI-LY10 cells),DC50 (OCI-LY10 cells)
CNc1cc(N2CCc3c(-c4ccc(CC5CC6(CCN(C(=O)c7cc(F)c(Cl)c(N8CCC(=O)NC8=O)c7)CC6)C5)cn4)cccc32)nn2c(C(=O)N[C@@H]3CC[C@H]3OC)cnc12 [I-1104],A (A (>90%)),< 0.01 µM,–,–
CNc1cc(-c2cccc(N3CCN(Cc4ccc5c(c4)n(C)c(=O)n5C4CCC(=O)NC4=O)CC3)n2)nn2c(C(=O)NC3CC3)cnc12 (centres unmarked) [I-198],D (D (<50%)),> 0.1 µM,–,–
CNc1cc(N2CCc3c(CN4CCC(N5CCC(OCC#Cc6cccc7c6n(C)c(=O)n7C6CCC(=O)NC6=O)CC5)C(F)(F)C4)cccc32)nn2c(C(=O)N[C@@H]3C[C@@H]3F)cnc12 (some centres unmarked) [I-372],D (D (<50%)),< 0.01 µM,–,–
CNc1cc(N2CC3(CCN(CC4CCN(c5ccc6c(c5)n(C)c(=O)n6C5CCC(=O)NC5=O)CC4)CC3)c3ccccc32)nn2c(C(=O)NC3CC3)cnc12 (centres unmarked) [I-24],D (D (<50%)),> 0.1 µM,–,–
CNc1cc(N2CCc3c(-c4ncc(CN5CC6(CCN(C(=O)c7cc(N8CCC(=O)NC8=O)c(C)cn7)CC6(F)F)C5)cc4F)cc(F)cc32)nn2c(C(=O)N[C@@H]3C[C@@H]3F)cnc12 [I-971],B (B (90 to >75%)),< 0.001 µM,–,–
CNc1cc(N2CCc3c(-c4ccc(CN5CC6(CCN(C(=O)c7ccc(N8CCC(=O)NC8=O)c(Cl)c7)CC6)C5)cn4)cccc32)nn2c(C(=O)N[C@@H]3C[C@@H]3F)cnc12 [I-896],D (D (<50%)),> 0.1 µM,–,–
CNc1cc(N2CCc3c(N4CCN(C5CCC6(CC5)CCN(C(=O)c5ccc(Cl)c(N7CCC(=O)NC7=O)c5)CC6)CC4)cccc32)nn2c(C(=O)N[C@@H]3C[C@@H]3F)cnc12 [I-284],D (D (<50%)),> 0.1 µM,–,–
CNc1cc(N2CCc3c(CN4CCC(N5CCC(N(C)c6ccc(Cl)c(N7CCC(=O)NC7=O)c6)CC5)C(F)(F)C4)cccc32)nn2c(C(=O)N[C@@H]3C[C@@H]3F)cnc12 (some centres unmarked) [I-758],–,–,B (B (90 to >75%)),< 0.01 µM
CNc1cc(N2CCc3c(CN4CCC(N5CCC(C6CCN(C(=O)c7ccc(Cl)c(N8CCC(=O)NC8=O)c7)CC6)CC5)C(F)(F)C4)cccc32)nn2c(C(=O)N[C@@H]3C[C@@H]3F)cnc12 (some centres unmarked) [I-780],–,–,A (A (>90%)),< 0.001 µM
CNc1cc(N2CCc3c(-c4cc(CN5CC6(CCN(C(=O)c7ccc(Cl)c(N8CCC(=O)NC8=O)c7)CC6)C5)ccn4)cccc32)nn2c(C(=O)N[C@@H]3C[C@@H]3F)cnc12 [I-79],D (D (<50%)),< 0.01 µM,–,–
CNc1cc(N2CCc3c(CN4CCC(N5CCC6(CCN(C(=O)c7cc(F)c(Cl)c(N8CCC(=O)NC8=O)c7)CC6)CC5)C(F)(F)C4)cccc32)nn2c(C(=O)N[C@@H]3C[C@@H]3F)cnc12 (some centres unmarked) [I-712],–,–,B (B (90 to >75%)),< 0.001 µM
CNc1cc(N2CCc3c(CN4CCC(CN5CC6(CCN(C(=O)c7ccc(Cl)c(N8CCC(=O)NC8=O)c7)CC6)C5)CC4)cccc32)nn2c(C(=O)N[C@@H]3C[C@@H]3F)cnc12 [I-894],B (B (90 to >75%)),< 0.01 µM,–,–
CNc1cc(N2CCc3c(CN4CCC(N5CCC6(CCN(C(=O)c7cc(C)c(Cl)c(N8CCC(=O)NC8=O)c7)CC6)CC5)C(F)(F)C4)cc(F)cc32)nn2c(C(=O)N[C@@H]3CC[C@H]3OC)cnc12 (some centres unmarked) [I-1114],A (A (>90%)),< 0.001 µM,–,–
CNc1cc(N2CCc3c(-c4ccc(CN5CCC(N6CCN(CCc7ccc(Cl)c(C8CCC(=O)NC8=O)c7)CC6)C(F)(F)C5)cn4)cccc32)nn2c(C(=O)NC3CC3F)cnc12 (centres unmarked) [I-902],B (B (90 to >75%)),< 0.01 µM,–,–
CNc1cc(N2CC3(CCN(CCc4ccc5c(c4)n(C)c(=O)n5C4CCC(=O)NC4=O)CC3)c3ccccc32)nn2c(C(=O)NC3CC3)cnc12 (centres unmarked) [I-53],D (D (<50%)),> 0.1 µM,–,–
CNc1cc(N2CCc3c(-c4ncc(CN5CC6(CCN(C(=O)c7cc(C)c(OC)c(N8CCC(=O)NC8=O)c7)CC6(F)F)C5)cc4F)cccc32)nn2c(C(=O)N[C@@H]3CC[C@H]3OC)cnc12 [I-1138],B (B (90 to >75%)),< 0.001 µM,–,–
CNc1cc(N2CCc3c(-c4ncc([C@@H](C)N5CC6(CCN(C(=O)c7cc(C)c(Cl)c(N8CCC(=O)NC8=O)c7)CC6(F)F)C5)cc4F)cccc32)nn2c(C(=O)N[C@@H]3CC[C@H]3OC)cnc12 [I-1144],B (B (90 to >75%)),< 0.001 µM,–,–
CNc1cc(N2CCc3c(C4CCN(CC5CCC6(CC5)CCN(C(=O)c5ccc(Cl)c(N7CCC(=O)NC7=O)c5)CC6)CC4)cccc32)nn2c(C(=O)NC3CC3)cnc12 [I-56],C (C (75 to 50%)),< 0.01 µM,–,–
CNc1cc(N2CC3(CCN(C4CCN(c5cccc6c5n(C)c(=O)n6C5CCC(=O)NC5=O)CC4)CC3)c3ccccc32)nn2c(C(=O)NC3CC3)cnc12 (centres unmarked) [I-23],D (D (<50%)),> 0.1 µM,–,–

Structure (SMILES),TYK2 MSD OCI-LY10 Dmax % [1],DC50 [1],TYK2 MSD OCI-LY10 Dmax % (OCI-LY10 cells),DC50 (OCI-LY10 cells)
CNc1cc(N2CCc3c(C#CCN4CCC(N5CCN(C(=O)c6ccc(Cl)c(N7CCC(=O)NC7=O)c6)CC5)C(F)(F)C4)cccc32)nn2c(C(=O)NC3CC3F)cnc12 (centres unmarked) [I-854],A (A (>90%)),< 0.001 µM,–,–
CNc1cc(N2CCc3c(-c4cc(CN5CCN(c6ccc7c(c6F)n(C)c(=O)n7C6CCC(=O)NC6=O)CC5)ccn4)cccc32)nn2c(C(=O)NC3CC3)cnc12 (centres unmarked) [I-71],B (B (90 to >75%)),< 0.001 µM,–,–
CNc1cc(N2CCc3c(N4CCN(C5CCC6(CC5)CCN(c5ccc7c(c5)n(C)c(=O)n7C5CCC(=O)NC5=O)CC6)CC4)cccc32)nn2c(C(=O)NC3CC3)cnc12 (centres unmarked) [I-31],D (D (<50%)),< 0.01 µM,–,–
CNc1cc(N2CCc3c(CN4CCC(N5CCC6(CCN(C(=O)c7cc(C)c(C)c(N8CCC(=O)NC8=O)c7)CC6)CC5)C(F)(F)C4)cccc32)nn2c(C(=O)N[C@@H]3CC[C@H]3OC)cnc12 (some centres unmarked) [I-995],A (A (>90%)),< 0.001 µM,–,–
CNc1cc(N2CCc3c(-c4ncc(CN5CC6(CCN(C(=O)c7cc(F)c(C)c(N8CCC(=O)NC8=O)c7)CC6(F)F)C5)cc4F)cccc32)nn2c(C(=O)N[C@@H]3C[C@@H]3F)cnc12 [I-1016],A (A (>90%)),< 0.001 µM,–,–
CNc1cc(N2CCc3c2ccc(C)c3CN2CCC(N3CCC4(CCN(C(=O)c5ccc(Cl)c(N6CCC(=O)NC6=O)c5)CC4)CC3)C(F)(F)C2)nn2c(C(=O)N[C@@H]3C[C@@H]3F)cnc12 (some centres unmarked) [I-755],–,–,C (C (75 to 50%)),0.01 to 0.1 µM
CNc1cc(N2CCc3c(-c4ccc(CN5CC6(CCN(C(=O)c7cc(C)c(Cl)c(N8CCC(=O)NC8=O)c7)CC6(F)F)C5)cn4)cccc32)nn2c(C(=O)NC(C)c3ncco3)cnc12 (centres unmarked) [I-1072],B (B (90 to >75%)),< 0.01 µM,–,–
CNc1cc(N2CCc3c(N4CC(CN5CCC(N6CCC7(CCN(C(=O)c8ccc(Cl)c(N9CCC(=O)NC9=O)c8)CC7)CC6)C(F)(F)C5)C4)cccc32)nn2c(C(=O)N[C@@H]3C[C@@H]3F)cnc12 (some centres unmarked) [I-785],–,–,B (B (90 to >75%)),< 0.01 µM
CNc1cc(N2CCc3c(-c4ncc(CN5CC6(CCN(C(=O)c7cc(N8CCC(=O)NC8=O)c(Cl)c(C)n7)CC6(F)F)C5)cc4F)cc(F)cc32)nn2c(C(=O)N[C@@H]3C[C@@H]3F)cnc12 [I-1150],A (A (>90%)),< 0.001 µM,–,–
CNc1cc(N2CCc3c(CC4CCN(C5CCC6(CC5)CCN(C(=O)c5ccc(Cl)c(N7CCC(=O)NC7=O)c5)CC6)CC4)cccc32)nn2c(C(=O)N[C@@H]3C[C@@H]3F)cnc12 [I-820],B (B (90 to >75%)),< 0.01 µM,–,–
CNc1cc(N2CCc3c(C#CCN4CCC5(CN(C(=O)c6ccc(Cl)c(N7CCC(=O)NC7=O)c6)C5)C(F)(F)C4)cccc32)nn2c(C(=O)N[C@@H]3C[C@@H]3F)cnc12 [I-370],D (D (<50%)),> 0.1 µM,–,–
CNc1cc(N2CCc3c(-c4cc(CN5CCN(C(=O)c6ccc(Cl)c(N7CCC(=O)NC7=O)c6)CC5)ccn4)cccc32)nn2c(C(=O)N[C@@H]3C[C@@H]3F)cnc12 [I-78],D (D (<50%)),< 0.01 µM,–,–
CNc1cc(N2CCc3c(-c4ccc(CN5CC6(CCN(C(=O)c7ccc(OC)c(N8CCC(=O)NC8=O)c7)CC6)C5)cn4)cccc32)nn2c(C(=O)N[C@@H]3C[C@@H]3F)cnc12 [I-64],A (A (>90%)),< 0.001 µM,–,–
CNc1cc(N2CCc3c(-c4ccc(CN5CCC6(CCC(Oc7ccc(Cl)c(N8CCC(=O)NC8=O)c7)CC6)C(F)(F)C5)cn4)cccc32)nn2c(C(=O)NC3CCC3OC)cnc12 (centres unmarked) [I-1010],B (B (90 to >75%)),< 0.01 µM,–,–
CNc1cc(N2CCc3c(-c4ncc(CN5CC6(CCN(C(=O)c7cc(N8CCC(=O)NC8=O)c(F)cn7)CC6(F)F)C5)cc4F)cc(F)cc32)nn2c(C(=O)N[C@@H]3CC[C@H]3OC)cnc12 [I-1155],B (B (90 to >75%)),< 0.001 µM,–,–
CNc1cc(N2CC3(CCN(Cc4ccc5c(c4)n(C)c(=O)n5C4CCC(=O)NC4=O)CC3)c3ccccc32)nn2c(C(=O)NC3CC3)cnc12 (centres unmarked) [I-34],D (D (<50%)),> 0.1 µM,–,–
CNc1cc(N2CCc3c(-c4ccc(CN5CCC6(CCN(C(=O)c7ccc(Cl)c(N8CCC(=O)NC8=O)c7)C6)C5)cn4)cccc32)nn2c(C(=O)NC3CC3F)cnc12 (centres unmarked) [I-302],C (C (75 to 50%)),< 0.001 µM,–,–
CNc1cc(N2CCc3c(CC4CCN(C5CCC6(CCN(C(=O)c7ccc(Cl)c(N8CCC(=O)NC8=O)c7)CC6)OC5)CC4)cccc32)nn2c(C(=O)N[C@@H]3C[C@@H]3F)cnc12 (some centres unmarked) [I-685],–,–,C (C (75 to 50%)),< 0.01 µM
